# Key:
# [1] = system: AREc32 reporter cell line (antioxidant response element of rat Gsta2, Nrf2 target gene); experiment: AREc32 luciferase reporter activation; assay type: cell-based, human; conditions: for AREc32 EC2X Relative to RTA 402 (fold) (Mean ± SD): average of ratios from replicate experiments, benchmark RTA 402; for AREc32 Relative to CC in Same Experiment (Mean ± SD): average of ratios from experiments with direct comparisons; for EC (2-fold): human, Arec32, 19 h, concentration increasing luminescence signal 2-fold above vehicle, nineteen hours, read-out: AREc32 EC2X (nM) (Mean ± SD)
# Experimental: […] The effect of several compounds disclosed herein on luciferase reporter activation was assessed in the AREc32 reporter cell line (see Table 10 and Table 11). This cell line is derived from human breast carcinoma MCF-7 cells and is stably transfected with a luciferase reporter gene under the transcriptional control of eight copies of the antioxidant response element from the rat Gsta2 gene, an Nrf2 target gene ([…] et al., 1990). […] Twenty-four hours after plating, cells were treated with vehicle (DMSO) or test compounds at concentrations ranging from 0.03 to 1000 nM for nineteen hours. Media was removed and 100 μL of 1:1 mixture of the One-Glo Luciferase assay reagent and culture medium was added to each well. After incubation for 5 min at room temperature, the luminescence signal was measured on a PHERAstar plate reader. The EC2X value was determined using Excel and GraphPad Prism software. The fold increase in luminescence signal for cells treated with each concentration of compound relative to cells treated with vehicle was determined and a dose-response curve was generated. The dose-response curve was fit using nonlinear regression analysis and used to extrapolate the EC2X value.
# [2] = system: RAW 264.7 cells; experiment: Nitric oxide suppression assay (IFNγ-induced NO production); assay type: cell-based, mouse; conditions: for IC50: Mus musculus, RAW264.7, RAW 264.7 cells, 2 h pretreatment, 20 ng/mL interferon gamma 24 h, nitrite by Griess, read-out: NO IC50 (nM) (Mean ± SD); for NO IC50 Relative to RTA 402 (fold) (Mean ± SD): average of ratios from replicate experiments, benchmark RTA 402
# Experimental: Tissue Culture. RAW 264.7, a mouse macrophage cell line, was obtained from American Type Culture Collection (Manassas VA) and maintained in the log phase of growth in Roswell Park Memorial Institute Medium 1640 (RPMI 1640) supplemented with 10% heat inactivated fetal bovine serum (FBS) and 1% penicillin-streptomycin. Cells were cultured and maintained in a humidified incubator at 37° C. under 5% CO2. Cells were sub-cultured every 3 days. […] All cell culture supplies were obtained from Life Technologies (Grand Island, NY) and VWR (Radnor, PA). Nitric Oxide Suppression Assay. RAW 264.7 cells were plated 1 day in advance of experimental treatments at a concentration of 30,000 cells per well onto Falcon-96 well clear bottom plates (Corning, NY) in a total volume of 200 μL per well using RPMI 1640 supplemented with 0.5% fetal bovine serum and 1% penicillin-streptomycin. The next day, cells were pretreated with compounds serially diluted from 1000× stocks. All compounds were dissolved in dimethyl sulfoxide (DMSO) at 10 mM stock solutions. Compounds were subsequently diluted in DMSO and RPMI 1640. Each well received a final concentration of 0.1% DMSO. Cells were pretreated for 2 hours and incubation at 37° C., followed by treatment with 20 ng/mL of interferon gamma (R&D Systems, Minneapolis, MN) per well for 24 hours. […] Afterwards, 50 μL of cell culture supernatant was transferred from each well into a new Falcon-96 well clear bottom plate. […] Afterwards, air bubbles were removed using ethanol vapor and absorbance was measured using a Spectramax M2e plate reader with a wavelength set to 525 nm. Viability was assessed using WST-1 cell proliferation reagent from Roche (Basel, Switzerland). After media was removed for the Nitric Oxide suppression assay, 15 μL of WST-1 reagent was added to each well of cells. Plates were briefly mixed on an orbital shaker and the cells were incubated at 37° C. for 30 minutes. Absorbance was measured using a Spectramax M2e plate reader with wavelengths set to 440 nm and 700 nm. For the ability of compounds to suppress the increase in nitric oxide release caused by interferon gamma, the absolute amount of nitrite that was produced in each well was extrapolated from the nitrite standards using a linear regression fit. All values were then normalized to the DMSO-interferon gamma treated wells and plotted as percent nitric oxide. IC50 values were calculated with a dependence on WST1 viability using Excel and/or GraphPad Prism (San Diego, CA).
# [3] = system: AML-12 hepatocyte cell line; experiment: Glutathione assay (total glutathione, GSH-Glo); assay type: cell-based, mouse; conditions: for EC50: Mus musculus, AML12, AML-12 cells, 24 hours, total glutathione, read-out: GSH EC50 (nM) (Mean ± SD); for GSH EC50 Relative to RTA 402 (fold) (Mean ± SD): benchmark RTA 402
# Experimental: The effect of compound treatment on total glutathione levels was evaluated in the mouse AML-12 hepatocyte cell line. Glutathione—a tripeptide consisting of cysteine, glutamate, and glycine—is the major thiol-containing protein within the cell and regulates cellular redox balance. Glutathione also plays important roles in detoxification, protein glutathionylation, and iron-sulfur cluster biogenesis (Bachhawat and Yadav, 2018). Nrf2 regulates the expression of many genes involved in glutathione synthesis and metabolism, including both subunits of glutamate cysteine ligase (GCL), the enzyme that catalyzes the rate limiting step of glutathione biosynthesis (Thimmulappa et al., 2002). […] The next day, cells were treated with vehicle (DMSO) or test compound (0.03 nM to 1000 nM). Each well received a final concentration of 0.1% DMSO. Cells were incubated at 37° C., 5% CO2 for 24 hours. Total glutathione concentrations were measured using the GSH-Glo Glutathione Assay kit (Promega) according to the manufacturer's instructions. Briefly, a standard curve was prepared by serially diluting the provided glutathione solution. […] After a 30-minute incubation at room temperature, 100 μL of Luciferin detection reagent was added to all sample and standard wells and incubated for 15 minutes. Luminescence was measured using a PHERAstar plate reader. The EC50 value was determined using Excel and GraphPad Prism software. The basal concentration of glutathione was set to 0% and the highest concentration of glutathione produced following treatment with a test compound was set to 100% and a dose-response curve was generated. The dose-response curve was fit using nonlinear regression analysis and used to extrapolate the EC50 value.
SMILES,AREc32 EC2X Relative to RTA 402 (fold) (Mean ± SD) [1],AREc32 Relative to CC in Same Experiment (Mean ± SD) ([1]; comparison compound CC3),EC (2-fold) [1],IC50 [2],NO IC50 Relative to RTA 402 (fold) (Mean ± SD) [2],EC50 [3],GSH EC50 Relative to RTA 402 (fold) (Mean ± SD) [3],AREc32 Relative to CC in Same Experiment (Mean ± SD) ([1]; comparison compound CC2)
CCc1noc([C@]23CCC(C)(C)C[C@H]2[C@H]2C(=O)C=C4[C@@]5(C)C=C(C#N)C(=O)[C@@H](C)[C@@H]5CC[C@@]4(C)[C@]2(C)CC3)n1 [Compound T37],0.69 ± 0.06 fold,1.58 ± 0.16,10.3 ± 1.35 nM,3.45 ± 1.87 nM,0.76 ± 0.12 fold,1.69 ± 0.19 nM,0.88 ± 0.13 fold,–
CCc1nnc([C@]23CCC(C)(C)C[C@H]2[C@H]2C(=O)C=C4[C@@]5(C)C=C(C#N)C(=O)C(C)(C)[C@@H]5CC[C@@]4(C)[C@]2(C)CC3)o1 [Compound T46],1.60 ± 0.44 fold,–,24 ± 1.5 nM,5.44 ± 2.81 nM,1.60 ± 0.29 fold,2.39 ± 0.29 nM,1.24 ± 0.17 fold,–
CC1(C)CC[C@]2(c3nnc(C(F)(F)F)o3)CC[C@]3(C)[C@H](C(=O)C=C4[C@@]5(C)C=C(C#N)C(=O)C(C)(C)[C@@H]5CC[C@]43C)[C@@H]2C1 [Compound T45],1.95 ± 0.57 fold,–,29.1 ± 2.09 nM,12.9 ± 6.38 nM,3.81 ± 0.34 fold,8 ± 1.37 nM,4.14 ± 0.35 fold,–
CC1(C)CC[C@]2(c3nc(CCN)no3)CC[C@]3(C)[C@H](C(=O)C=C4[C@@]5(C)C=C(C#N)C(=O)C(C)(C)[C@@H]5CC[C@]43C)[C@@H]2C1 [Compound T16],0.30 ± 0.00 fold,–,3.56 ± 0.31 nM,1.26 ± 0.12 nM,0.94 ± 0.19 fold,0.58 ± 0.04 nM,0.46 ± 0.09 fold,–
CC1(C)CC[C@]2(c3noc(CCN)n3)CC[C@]3(C)[C@H](C(=O)C=C4[C@@]5(C)C=C(C#N)C(=O)C(C)(C)[C@@H]5CC[C@]43C)[C@@H]2C1 [Compound T3],0.91 ± 0.29 fold,–,9.21 ± 3.66 nM,2.6 nM,0.69 ± 0.22 fold,1.45 ± 0.28 nM,0.54 ± 0.06 fold,–
CCc1noc([C@]23CCC(C)(C)C[C@H]2[C@H]2C(=O)C=C4[C@@]5(C)C=C(C#N)C(=O)C(C)(C)[C@@H]5CC[C@@]4(C)[C@]2(C)CC3)n1 [Compound T23],1.43 ± 0.26 fold,–,20.2 ± 2.51 nM,4.85 nM,1.93 ± 0.54 fold,3.26 ± 0.51 nM,2.05 ± 0.44 fold,2.41 ± 0.42
CC1(C)CC[C@]2(c3nc(C(F)F)no3)CC[C@]3(C)[C@H](C(=O)C=C4[C@@]5(C)C=C(C#N)C(=O)C(C)(C)[C@@H]5CC[C@]43C)[C@@H]2C1 [Compound T43],0.62 ± 0.09 fold,–,9.92 ± 2.32 nM,6.45 ± 1.29 nM,1.90 ± 0.49 fold,3.29 ± 0.55 nM,1.60 ± 0.05 fold,1.09 ± 0.09
Cc1nc([C@]23CCC(C)(C)C[C@H]2[C@H]2C(=O)C=C4[C@@]5(C)C=C(C#N)C(=O)C(C)(C)[C@@H]5CC[C@@]4(C)[C@]2(C)CC3)no1 [Compound T20],1.50 ± 0.18 fold,–,21.5 ± 2.85 nM,3.79 nM,1.30 ± 0.26 fold,1.66 ± 0.66 nM,0.96 ± 0.15 fold,–
CC1(C)CC[C@]2(c3nnn(CCF)n3)CC[C@]3(C)[C@H](C(=O)C=C4[C@@]5(C)C=C(C#N)C(=O)C(C)(C)[C@@H]5CC[C@]43C)[C@@H]2C1 [Compound T10],2.41 ± 0.98 fold,–,28.4 ± 9.42 nM,2.2 ± 0.2 nM,1.62 ± 0.16 fold,1.45 ± 0.17 nM,1.14 ± 0.03 fold,–
CC1(C)CC[C@]2(c3noc(C(F)F)n3)CC[C@]3(C)[C@H](C(=O)C=C4[C@@]5(C)C=C(C#N)C(=O)C(C)(C)[C@@H]5CC[C@]43C)[C@@H]2C1 [Compound T41],1.52 ± 0.19 fold,–,24.2 ± 3.36 nM,9.84 ± 3.52 nM,2.79 ± 0.64 fold,4.85 ± 0.36 nM,2.38 ± 0.29 fold,–
CC1(C)CC[C@]2(c3nc(C(F)(F)F)no3)CC[C@]3(C)[C@H](C(=O)C=C4[C@@]5(C)C=C(C#N)C(=O)C(C)(C)[C@@H]5CC[C@]43C)[C@@H]2C1 [Compound T22],3.45 ± 0.69 fold,–,54.6 ± 8.83 nM,23.9 nM,7.71 ± 2.33 fold,17.6 ± 0.59 nM,8.72 ± 1.98 fold,–
